According to article PMC5214803 (Scientific Reports, 2017):

Target: T1, Apc holoenzyme (Apc core complex plus Apcε) (Aromatoleum aromaticum, UniProt Q5P5G2+Q5P5G4)
T1 construct: gene apc3
Conditions: ATP sites in Apcα and Apcα′ inferred from structure

T1 sequence (Q5P5G4 2-732): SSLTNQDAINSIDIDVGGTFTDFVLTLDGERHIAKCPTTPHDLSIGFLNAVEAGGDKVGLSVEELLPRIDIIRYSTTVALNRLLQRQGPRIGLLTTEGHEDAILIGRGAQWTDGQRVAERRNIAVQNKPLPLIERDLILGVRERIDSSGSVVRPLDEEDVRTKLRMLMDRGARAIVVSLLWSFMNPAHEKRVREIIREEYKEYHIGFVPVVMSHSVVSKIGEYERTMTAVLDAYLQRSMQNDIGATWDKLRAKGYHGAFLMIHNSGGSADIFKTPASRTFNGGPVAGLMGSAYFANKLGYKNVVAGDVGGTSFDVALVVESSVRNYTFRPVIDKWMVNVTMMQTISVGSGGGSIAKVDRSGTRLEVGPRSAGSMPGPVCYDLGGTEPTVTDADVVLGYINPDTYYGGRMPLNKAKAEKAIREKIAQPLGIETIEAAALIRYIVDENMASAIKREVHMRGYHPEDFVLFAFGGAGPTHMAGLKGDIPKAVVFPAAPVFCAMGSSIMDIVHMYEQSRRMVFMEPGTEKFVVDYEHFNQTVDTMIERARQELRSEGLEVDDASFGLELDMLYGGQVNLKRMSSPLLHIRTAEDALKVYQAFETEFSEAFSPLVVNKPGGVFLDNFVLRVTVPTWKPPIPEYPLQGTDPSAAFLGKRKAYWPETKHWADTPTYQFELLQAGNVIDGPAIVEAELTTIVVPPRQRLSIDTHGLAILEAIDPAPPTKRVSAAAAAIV
T1 sequence (Q5P5G2 whole entry): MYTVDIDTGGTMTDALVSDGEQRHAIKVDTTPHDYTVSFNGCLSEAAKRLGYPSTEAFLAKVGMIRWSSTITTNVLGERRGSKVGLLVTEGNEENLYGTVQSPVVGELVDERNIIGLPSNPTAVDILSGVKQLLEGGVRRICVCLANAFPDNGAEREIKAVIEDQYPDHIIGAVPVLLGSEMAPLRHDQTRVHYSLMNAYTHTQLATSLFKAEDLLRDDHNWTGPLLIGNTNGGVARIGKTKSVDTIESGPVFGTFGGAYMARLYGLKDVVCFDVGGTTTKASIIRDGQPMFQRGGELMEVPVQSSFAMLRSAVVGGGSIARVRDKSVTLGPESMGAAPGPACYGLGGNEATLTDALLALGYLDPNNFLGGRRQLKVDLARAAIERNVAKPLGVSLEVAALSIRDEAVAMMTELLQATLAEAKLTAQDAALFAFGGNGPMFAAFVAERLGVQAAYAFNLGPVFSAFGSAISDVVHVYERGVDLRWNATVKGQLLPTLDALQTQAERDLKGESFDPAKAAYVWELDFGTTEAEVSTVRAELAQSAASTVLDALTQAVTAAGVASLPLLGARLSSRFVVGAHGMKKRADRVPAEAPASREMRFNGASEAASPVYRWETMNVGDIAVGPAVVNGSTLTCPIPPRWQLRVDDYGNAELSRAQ
T1 sequence (Q5P5G5 2-684 partner): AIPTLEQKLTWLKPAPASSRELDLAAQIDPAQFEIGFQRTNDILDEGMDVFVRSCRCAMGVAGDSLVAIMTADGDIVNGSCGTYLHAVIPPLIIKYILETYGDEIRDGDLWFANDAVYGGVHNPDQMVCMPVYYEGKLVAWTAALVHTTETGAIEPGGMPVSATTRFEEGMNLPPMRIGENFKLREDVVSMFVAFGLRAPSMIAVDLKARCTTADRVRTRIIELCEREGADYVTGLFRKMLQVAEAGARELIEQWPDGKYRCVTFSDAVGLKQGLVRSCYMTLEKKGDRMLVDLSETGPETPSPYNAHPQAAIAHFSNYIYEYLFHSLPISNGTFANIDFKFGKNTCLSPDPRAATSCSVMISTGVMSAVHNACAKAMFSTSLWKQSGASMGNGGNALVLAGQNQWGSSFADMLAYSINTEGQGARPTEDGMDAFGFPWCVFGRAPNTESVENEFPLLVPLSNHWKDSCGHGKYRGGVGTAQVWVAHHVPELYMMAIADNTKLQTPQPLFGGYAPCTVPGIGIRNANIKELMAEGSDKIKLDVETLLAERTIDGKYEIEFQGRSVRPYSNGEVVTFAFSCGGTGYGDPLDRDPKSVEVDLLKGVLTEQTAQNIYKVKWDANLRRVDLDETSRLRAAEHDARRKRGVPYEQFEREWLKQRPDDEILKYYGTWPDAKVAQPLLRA
T1 sequence (Q5P5G3 whole entry partner): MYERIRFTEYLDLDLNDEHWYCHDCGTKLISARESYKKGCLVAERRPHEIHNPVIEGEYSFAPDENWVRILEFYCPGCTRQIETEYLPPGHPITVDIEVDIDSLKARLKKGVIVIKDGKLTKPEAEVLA
T1 sequence (Q5P5G6 whole entry partner): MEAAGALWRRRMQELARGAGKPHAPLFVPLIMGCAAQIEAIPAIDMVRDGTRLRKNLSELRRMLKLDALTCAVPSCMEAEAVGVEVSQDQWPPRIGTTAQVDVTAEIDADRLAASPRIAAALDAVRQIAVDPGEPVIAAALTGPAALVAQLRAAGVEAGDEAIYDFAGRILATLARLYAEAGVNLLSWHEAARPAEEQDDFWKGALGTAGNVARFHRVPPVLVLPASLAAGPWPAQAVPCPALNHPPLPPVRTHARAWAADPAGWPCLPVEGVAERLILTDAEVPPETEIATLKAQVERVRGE

In the case of Nc1ncnc2c1ncn2[C@@H]1O[C@H](COP(=O)(O)OP(=O)(O)OP(=O)(O)O)[C@@H](O)[C@H]1O [ATP], the ATPase activity assay was “confirmed by determination of the ATPase activity and carboxylation of acetophenone”.
